According to patent US7833967B2, “Synthetic antimicrobial polypeptides” (priority 2003, dated 2010):

Each substance was assayed on E. coli TOP10 (assay: Suicide expression system (SES) growth inhibition). Settings: Table 1; 0.1% inducer (arabinose), pBAD/gIIIA in E. coli TOP10, Bioscreen C 37° C., end point OD450 vs control vector.
Assay type: cell-based

Substance	Growth inhibition (%)
1 (RRRPPRFPPRFPPRFPPRFPPRFPPRF; Synthetic antimicrobial peptide) [compound 1]	48%
2 (RRRPRFPPRFPPRFPPRFPPRFPPRFP; Synthetic antimicrobial peptide) [compound 2]	45%
3 (RRRRFPPRFPPRFPPRFPPRFPPRFPP; Synthetic antimicrobial peptide) [compound 3]	43%
4 (RRRFPPRFPPRFPPRFPPRFPPRFPPR; Synthetic antimicrobial peptide) [compound 4]	46%
5 (RRRPRPFPRPFPRPFPRPFPRPFPRPF; Synthetic antimicrobial peptide) [compound 5]	57%
6 (RRRRPFPRPFPRPFPRPFPRPFPRPFP; Synthetic antimicrobial peptide) [compound 6]	57%
7 (RRRPFPRPFPRPFPRPFPRPFPRPFPR; Synthetic antimicrobial peptide) [compound 7]	39%
8 (RRRFPRPFPRPFPRPFPRPFPRPFPRP; Synthetic antimicrobial peptide) [compound 8]	38%
9 (RRRPPFRPPFRPPFRPPFRPPFRPPFR; Synthetic antimicrobial peptide) [compound 9]	67%
10 (RRRPFRPPFRPPFRPPFRPPFRPPFRP; Synthetic antimicrobial peptide) [compound 10]	78%
11 (RRRFRPPFRPPFRPPFRPPFRPPFRPP; Synthetic antimicrobial peptide) [compound 11]	73%
12 (RRRRPPFRPPFRPPFRPPFRPPFRPPF; Synthetic antimicrobial peptide) [compound 12]	76%

Same assay, conditions: Table 2; variants of SEQ ID NO:1, re-tested in the Bioscreen C

Substance	Growth inhibition (%)
13 (RRRPPRFPPRFPPRFPPRFPPRFPPRF; Synthetic antimicrobial peptide) [compound 13]	51%
14 (RRRPPRFPPRIPPRFPPRLPPRIPPRL; Synthetic antimicrobial peptide) [compound 14]	90%
15 (RRRPPRFPPRIPPRLPPRVPPRVPPRL; Synthetic antimicrobial peptide) [compound 15]	57%
16 (RRRPPRIPPRFPPRVPPRFPPRVPPRV; Synthetic antimicrobial peptide) [compound 16]	98%
17 (RRRPPRIPPRLPPRIPPRFPPRFPPRL; Synthetic antimicrobial peptide) [compound 17]	95%
18 (RRRPPRLPPRFPPRFPPRIPPRFPPRI; Synthetic antimicrobial peptide) [compound 18]	99%
19 (RRRPPRLPPRFPPRFPPRIPPRFPPRI; Synthetic antimicrobial peptide) [compound 19]	78%
20 (RRRPPRLPPRFPPRFPPRVPPRFPPRV; Synthetic antimicrobial peptide) [compound 20]	86%
21 (RRRPPRLPPRFPPRFPPRVPPRFPPRV; Synthetic antimicrobial peptide) [compound 21]	86%
22 (RRRPPRLPPRFPPRFPPRVPPRLPPRF; Synthetic antimicrobial peptide) [compound 22]	81%
23 (RRRPPRLPPRFPPRFPPRVPPRVPPRF; Synthetic antimicrobial peptide) [compound 23]	82%
24 (RRRPPRLPPRFPPRFPPRVPPRVPPRF; Synthetic antimicrobial peptide) [compound 24]	90%
25 (RRRPPRLPPRFPPRFPPRVPPRVPPRI; Synthetic antimicrobial peptide) [compound 25]	81%
26 (RRRPPRVPPRFPPRVPPRFPPRVPLRL; Synthetic antimicrobial peptide) [compound 26]	86%
27 (RRRPPRLPPRLPPRLPPRVPPRVPLVSNCSRTKTHLRRGSE; Synthetic antimicrobial peptide) [compound 27]	90%

Same assay, conditions: Table 3; variants of SEQ ID NO:5, re-tested in the Bioscreen C

Substance	Growth inhibition (%)
28 (RRRPRPFPRPFPRPFPRPFPRPFPRPF; Synthetic antimicrobial peptide) [compound 28]	57%
29 (RRRPRLPRPFPRPVPRPLPRPVPRPI; Synthetic antimicrobial peptide) [compound 29]	63%
30 (RRRPRPFPPPFPRPIPRPFPRPFPRPL; Synthetic antimicrobial peptide) [compound 30]	61%
31 (RRRPRPFPRPFPHPFPRPFPRPIPRPI; Synthetic antimicrobial peptide) [compound 31]	73%
32 (RRRPRPFPRPFPHPIPRPLPRPFPRPI; Synthetic antimicrobial peptide) [compound 32]	77%
33 (RRRPRPFPRPFPRPFPRPFPRPFPRPF; Synthetic antimicrobial peptide) [compound 33]	79%
34 (RRRPRPFPRPFPRPFPRPFPRPFPRPL; Synthetic antimicrobial peptide) [compound 34]	74%
35 (RRRPRPFPRPFPRPFPRPFPRPIPRPF; Synthetic antimicrobial peptide) [compound 35]	78%
36 (RRRPRPFPRPFPRPFPRPFPRPIPRPI; Synthetic antimicrobial peptide) [compound 36]	77%
37 (RRRPRPFPRPFPRPFPRPIPRPFPRPV; Synthetic antimicrobial peptide) [compound 37]	68%
38 (RRRPRPFPRPFPRPFPRPIPRPVPRPI; Synthetic antimicrobial peptide) [compound 38]	64%
39 (RRRPRPFPRPFPRPFPRPLPRPFPRPF; Synthetic antimicrobial peptide) [compound 39]	56%
40 (RRRPRPFPRPFPRPFPRPVPRPLPRPI; Synthetic antimicrobial peptide) [compound 40]	69%
41 (RRRPRPFPRPFPRPFPRPVPRPLPRPV; Synthetic antimicrobial peptide) [compound 41]	71%
42 (RRRPRPFPRPFPRPIPRPFPRPLPRPI; Synthetic antimicrobial peptide) [compound 42]	66%
43 (RRRPRPFPRPFPRPIPRPFPRPVPRPV; Synthetic antimicrobial peptide) [compound 43]	68%
44 (RRRPRPFPRPFPRPLPRPFPRPVPRPF; Synthetic antimicrobial peptide) [compound 44]	95%
45 (RRRPRPFPRPFPRPLPRPIPRPFPRPV; Synthetic antimicrobial peptide) [compound 45]	69%

Substance	Growth inhibition (%)
46 (RRRPRPFPRPFPRPVPRPFPRPFPRPI; Synthetic antimicrobial peptide) [compound 46]	84%
47 (RRRPRPFPRPFPRPVPRPIPRPFPRPF; Synthetic antimicrobial peptide) [compound 47]	92%
48 (RRRPRPFPRPFPRPVPRPVPRPVPRPF; Synthetic antimicrobial peptide) [compound 48]	59%
49 (RRRPRPFPRPLPRPVPRPFPRPVPRPL; Synthetic antimicrobial peptide) [compound 49]	51%
50 (RRRPRPFPRPLPRPVPRPFPRPVPRPV; Synthetic antimicrobial peptide) [compound 50]	69%
51 (RRRPRPFPRPVPRPFPRPFPRPFPRPF; Synthetic antimicrobial peptide) [compound 51]	77%
52 (RRRPRPFPRPVPRPIPRPFPRPVPRPF; Synthetic antimicrobial peptide) [compound 52]	53%
53 (RRRPRPFPRPVPRPIPRPFPRPVPRPV; Synthetic antimicrobial peptide) [compound 53]	62%
54 (RRRPRPFPRPVPRPVPRPFPRPIPRPL; Synthetic antimicrobial peptide) [compound 54]	65%
55 (RRRPRPFPRPVPRPVPRPFPRPLPRPI; Synthetic antimicrobial peptide) [compound 55]	63%
56 (RRRPRPIPRPFPRPFPRPFPRPFPRPI; Synthetic antimicrobial peptide) [compound 56]	51%
57 (RRRPRPIPRPFPRPIPRPIPRPFPRPF; Synthetic antimicrobial peptide) [compound 57]	73%
58 (RRRPRPIPRPFPRPIPRPVPRPFPRPF; Synthetic antimicrobial peptide) [compound 58]	77%
59 (RRRPRPIPRPFPRPIPRPVPRPFPRPF; Synthetic antimicrobial peptide) [compound 59]	75%
60 (RRRPRPIPRPFPRPVPRPVPRPFPRPF; Synthetic antimicrobial peptide) [compound 60]	70%
61 (RRRPRPVPRPFPRPVPRPLPRPFPRPF; Synthetic antimicrobial peptide) [compound 61]	97%
62 (RRRPRPIPRPIPRPFPRPFPRPFHAQSNCSRTKTHLRRGSE; Synthetic antimicrobial peptide) [compound 62]	77%
63 (RRRPRPFPRPFPRPVPRPFPRPFPRQSNCSRTKTHLRRGSE; Synthetic antimicrobial peptide) [compound 63]	80%

Same assay, conditions: Table 4; variants of SEQ ID NO:10, re-tested in the Bioscreen C

Substance	Growth inhibition (%)
64 (RRRPFRPPFRPPFRPPFRPPFRPPFRP; Synthetic antimicrobial peptide) [compound 64]	82%
65 (RRRPLRPPLRPPVRPPVRPPFRPPFRP; Synthetic antimicrobial peptide) [compound 65]	89%
